In patent US5840929A, “C4 methoxy ether derivatives of paclitaxel” (Bristol-Myers Squibb Company, priority 1996, dated 1998):

Tested on: HCT-116 human colon carcinoma cells
Test: In vitro cytotoxicity, XTT assay in HCT-116 human colon carcinoma cells (72 h)
Format: cell-based
Settings: for Ratio of IC50 of Compound I over Paclitaxel: HCT-116, ratio to paclitaxel IC50; for IC50: Homo sapiens, HCT-116, XTT, 72 hours, 4000 cells/well, read-out: IC50 HCT-116 (drug concentration required to inhibit cell proliferation to 50% of untreated control cells)
Experimental: Cytotoxicity was assessed in HCT-116 human colon carcinoma cells by XTT (2,3-bis(2-methoxy-4-nitro-5-sulfphenyl)-5-[(phenylamino)carbonyl]2H-tetrazolium hydroxide) assay as reported in D. A. Scudiero, et al., "Evaluation of soluble tetrazolium/formazan assay for cell growth and drug sensitivity in culture using human and other tumor cell lines," Cancer Res. 48:4827-4833, 1988. Cells were plated at 4000 cells/well in 96 well microtiter plates and 24 hours later drugs were added and serial diluted. The cells were incubated at 37° C. for 72 hours at which time the tetrazolium dye, XTT, was added. A dehydrogenase enzyme in live cells reduces the XTT to a form that absorbs light at 450 nm which can be quantitated spectrophotometrically. The greater the absorbance, the greater the number of live cells. The results are expressed in Table I as an IC50, which is the drug concentration required to inhibit cell proliferation (i.e., absorbance at 450 nm) to 50% of that of untreated control cells.

| SMILES | Ratio of IC50 of Compound I over Paclitaxel | IC50 [nM] |
| --- | --- | --- |
| CO[C@@]12CO[C@@H]1C[C@H](O)[C@@]1(C)C(=O)[C@H](OC(C)=O)C3=C(C)[C@@H](OC(=O)[C@H](O)[C@@H](NC(=O)c4ccccc4)c4ccccc4)C[C@@](O)([C@@H](OC(=O)c4ccccc4)[C@H]21)C3(C)C [Compound Ia, 4-deacetyloxy-4-methoxypaclitaxel] | 21.7 | 34.7 |
| CO[C@@]12CO[C@@H]1C[C@H](O)[C@@]1(C)C(=O)[C@H](OC(C)=O)C3=C(C)[C@@H](OC(=O)[C@H](O)[C@@H](NC(=O)OC(C)(C)C)c4ccco4)C[C@@](O)([C@@H](OC(=O)c4ccccc4)[C@H]21)C3(C)C [Compound Ib, 4-deacetyloxy-4-methoxy-3'-desphenyl-3'-(2-furyl)-3'-N-debenzoyl-3'-N-butoxycarbonyl(paclitaxel)] | 1.61 | 3.7 |
| CO[C@@]12CO[C@@H]1C[C@H](O)[C@@]1(C)C(=O)[C@H](OC(C)=O)C3=C(C)[C@@H](OC(=O)[C@H](O)[C@@H](NC(=O)OC(C)(C)C)c4ccccc4)C[C@@](O)([C@@H](OC(=O)c4ccccc4)[C@H]21)C3(C)C [Compound Ic, 4-deacetyloxy-4-methoxy-3'-N-debenzoyl-3'-N-butoxycarbonyl(paclitaxel)] | 1.69 | 2.2 |
| CC(=O)O[C@H]1C(=O)[C@@]2(C)[C@H]([C@H](OC(=O)c3ccccc3)[C@]3(O)C[C@H](OC(=O)[C@H](O)[C@@H](NC(=O)c4ccccc4)c4ccccc4)C(C)=C1C3(C)C)[C@]1(OC(C)=O)CO[C@@H]1C[C@@H]2O [Paclitaxel, paclitaxel] |  | 1.3 to 2.3 |
